Results from patent publication US8952024B2, “Herbicidal pyrimidone derivatives” (E I du Pont de Nemours and Company, priority 2009, dated 2015).

Experiments:
Experiment in all cases: Test D pre-/postemergence plant response
Type in all cases: in vivo
[1] = tested on: barnyardgrass (Echinochloa crus-galli)
Procedure, shortened: (§1)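 Ratings come from greenhouse-grown weeds in loam and sand treated pre- or postemergence (postemergence height 2 to 18 cm). Evaluation after 14–21 days, visual, relative to controls, on a 0–100 control scale.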

[2] = tested on: prickly sida (Sida spinosa)
Procedure, shortened: as §1

[3] = tested on: mallow (common mallow, Malva sylvestris)
Procedure, shortened: as §1

[4] = tested on: groundsel (common groundsel, Senecio vulgaris); conditions: Postemergence
Procedure, shortened: as §1

[5] = tested on: green foxtail (Setaria viridis)
Procedure, shortened: as §1

[6] = tested on: guineagrass (Panicum maximum)
Procedure, shortened: as §1

[7] = tested on: bermudagrass (Cynodon dactylon)
Procedure, shortened: as §1

[8] = tested on: nutsedge (purple nutsedge, Cyperus rotundus)
Procedure, shortened: as §1

[9] = tested on: field bindweed (Convolvulus arvensis)
Procedure, shortened: as §1

[10] = tested on: johnsongrass (Sorghum halepense)
Procedure, shortened: as §1

[11] = tested on: spanishneedles (Bidens bipinnata)
Procedure, shortened: as §1

[12] = tested on: sowthistle (common sowthistle, Sonchus oleraceous)
Procedure, shortened: as §1

[13] = tested on: naked crabgrass (Digitaria nuda)
Procedure, shortened: as §1

[14] = tested on: itchgrass (Rottboellia cochinchinensis)
Procedure, shortened: as §1

[15] = tested on: Italian ryegrass (Lolium multiflorum)
Procedure, shortened: as §1

[16] = Postemergence, 16 g ai/ha, scale 0 to 100
[17] = Postemergence, 31 g ai/ha, scale 0 to 100 (0 no effect, 100 complete control)
[18] = Postemergence, 125 g ai/ha, scale 0 to 100 (0 no effect, 100 complete control)
[19] = Postemergence, 62 g ai/ha, scale 0 to 100 (0 no effect, 100 complete control)
[20] = Preemergence, 16 g ai/ha, scale 0 to 100, 0 no effect, 100 complete control
[21] = Preemergence, 31 g ai/ha, scale 0 to 100 (0 no effect, 100 complete control)
[22] = Preemergence, 62 g ai/ha, scale 0 to 100
[23] = Preemergence, 125 g ai/ha, scale 0 to 100
[24] = Postemergence, 31 g ai/ha, scale 0 to 100

With Cc1ccc(F)c(-n2c(-c3ccccc3)ncc(C(=O)C3=C(O)CCCC3=O)c2=O)c1 [Compound 51] the “Plant response rating, Barnyardgrass” value [1, 16] was 65, the “Plant response rating, Barnyardgrass” value [1, 17] was 70 and the “Plant response rating, Barnyardgrass” value [1, 18] was 70. The “Plant response rating, Barnyardgrass” value [1, 19] was 70, the “Plant response rating, Barnyardgrass” value [1, 20] was 0 and the “Plant response rating, Barnyardgrass” value [1, 21] was 0. The “Plant response rating, Barnyardgrass” value [1, 22] was 0, the “Plant response rating, Barnyardgrass” value [1, 23] was 10 and the “Plant response rating, Prickly Sida” value [2, 16] was 50. For the same compound, the “Plant response rating, Prickly Sida” value [2, 24] was 50, the “Plant response rating, Prickly Sida” value [2, 18] was 75 and the “Plant response rating, Prickly Sida” value [2, 19] was 65. For the same compound, the “Plant response rating, Prickly Sida” value [2, 20] was 0, the “Plant response rating, Prickly Sida” value [2, 21] was 20 and the “Plant response rating, Prickly Sida” value [2, 22] was 20. For the same compound, the “Plant response rating, Prickly Sida” value [2, 23] was 35, the “Plant response rating, Mallow” value [3, 16] was 0 and the “Plant response rating, Mallow” value [3, 24] was 0. For the same compound, the “Plant response rating, Mallow” value [3, 18] was 20, the “Plant response rating, Mallow” value [3, 19] was 0 and the “Plant response rating, Mallow” value [3, 20] was 0. The “Plant response rating, Mallow” value [3, 21] was 0, the “Plant response rating, Mallow” value [3, 22] was 0 and the “Plant response rating, Mallow” value [3, 23] was 65. For the same compound, the “Plant response rating, Groundsel” value ([4]; 16 g ai/ha, scale 0 to 100) was 85, the “Plant response rating, Groundsel” value ([4]; 31 g ai/ha, scale 0 to 100) was 98 and the “Plant response rating, Groundsel” value ([4]; 125 g ai/ha, scale 0 to 100 (0 no effect, 100 complete control)) was 100. For the same compound, the “Plant response rating, Groundsel” value ([4]; 62 g ai/ha, scale 0 to 100 (0 no effect, 100 complete control)) was 100, the “Plant response rating, Foxtail, Green” value [5, 16] was 10 and the “Plant response rating, Foxtail, Green” value [5, 24] was 20. The “Plant response rating, Foxtail, Green” value [5, 18] was 65, the “Plant response rating, Foxtail, Green” value [5, 19] was 40 and the “Plant response rating, Foxtail, Green” value [5, 20] was 0. The “Plant response rating, Foxtail, Green” value [5, 21] was 0, the “Plant response rating, Foxtail, Green” value [5, 22] was 0 and the “Plant response rating, Foxtail, Green” value [5, 23] was 0. The “Plant response rating, Guineagrass” value [6, 16] was 20, the “Plant response rating, Guineagrass” value [6, 24] was 30 and the “Plant response rating, Guineagrass” value [6, 18] was 50. The “Plant response rating, Guineagrass” value [6, 19] was 30, the “Plant response rating, Guineagrass” value [6, 20] was 0 and the “Plant response rating, Guineagrass” value [6, 21] was 0. For the same compound, the “Plant response rating, Guineagrass” value [6, 22] was 0, the “Plant response rating, Guineagrass” value [6, 23] was 75 and the “Plant response rating, Bermudagrass” value [7, 16] was 65. For the same compound, the “Plant response rating, Bermudagrass” value [7, 17] was 75, the “Plant response rating, Bermudagrass” value [7, 18] was 85 and the “Plant response rating, Bermudagrass” value [7, 19] was 80. The “Plant response rating, Bermudagrass” value [7, 20] was 0, the “Plant response rating, Bermudagrass” value [7, 21] was 0 and the “Plant response rating, Bermudagrass” value [7, 22] was 0. For the same compound, the “Plant response rating, Bermudagrass” value [7, 23] was 30, the “Plant response rating, Nutsedge, Purple” value [8, 16] was 0 and the “Plant response rating, Nutsedge, Purple” value [8, 24] was 0. For the same compound, the “Plant response rating, Nutsedge, Purple” value [8, 18] was 20, the “Plant response rating, Nutsedge, Purple” value [8, 19] was 15 and the “Plant response rating, Nutsedge, Purple” value [8, 20] was 0. For the same compound, the “Plant response rating, Nutsedge, Purple” value [8, 21] was 0, the “Plant response rating, Nutsedge, Purple” value [8, 22] was 5 and the “Plant response rating, Nutsedge, Purple” value [8, 23] was 5. The “Plant response rating, Field Bindweed” value [9, 16] was 5, the “Plant response rating, Field Bindweed” value [9, 24] was 5 and the “Plant response rating, Field Bindweed” value [9, 18] was 60. The “Plant response rating, Field Bindweed” value [9, 19] was 20, the “Plant response rating, Field Bindweed” value [9, 20] was 0 and the “Plant response rating, Field Bindweed” value [9, 21] was 0. For the same compound, the “Plant response rating, Field Bindweed” value [9, 22] was 0, the “Plant response rating, Field Bindweed” value [9, 23] was 0 and the “Plant response rating, Johnsongrass” value [10, 16] was 20. For the same compound, the “Plant response rating, Johnsongrass” value [10, 24] was 35, the “Plant response rating, Johnsongrass” value [10, 18] was 70 and the “Plant response rating, Johnsongrass” value [10, 19] was 60. For the same compound, the “Plant response rating, Johnsongrass” value [10, 20] was 0, the “Plant response rating, Johnsongrass” value [10, 21] was 0 and the “Plant response rating, Johnsongrass” value [10, 22] was 20. The “Plant response rating, Johnsongrass” value [10, 23] was 70, the “Plant response rating, Spanishneedles” value [11, 16] was 35 and the “Plant response rating, Spanishneedles” value [11, 24] was 50. For the same compound, the “Plant response rating, Spanishneedles” value [11, 18] was 70, the “Plant response rating, Spanishneedles” value [11, 19] was 60 and the “Plant response rating, Spanishneedles” value [11, 20] was 0. For the same compound, the “Plant response rating, Spanishneedles” value [11, 21] was 0, the “Plant response rating, Spanishneedles” value [11, 23] was 98 and the “Plant response rating, Sowthistle” value [12, 16] was 95. The “Plant response rating, Sowthistle” value [12, 24] was 98, the “Plant response rating, Sowthistle” value [12, 18] was 100 and the “Plant response rating, Sowthistle” value [12, 19] was 100. The “Plant response rating, Sowthistle” value [12, 20] was 40, the “Plant response rating, Sowthistle” value [12, 21] was 75 and the “Plant response rating, Sowthistle” value [12, 23] was 100. The “Plant response rating, Crabgrass, Naked” value [13, 16] was 35, the “Plant response rating, Crabgrass, Naked” value [13, 24] was 50 and the “Plant response rating, Crabgrass, Naked” value [13, 18] was 65. The “Plant response rating, Crabgrass, Naked” value [13, 20] was 0, the “Plant response rating, Crabgrass, Naked” value [13, 21] was 0 and the “Plant response rating, Crabgrass, Naked” value [13, 22] was 0. For the same compound, the “Plant response rating, Crabgrass, Naked” value [13, 23] was 0, the “Plant response rating, Itchgrass” value [14, 16] was 0 and the “Plant response rating, Itchgrass” value [14, 24] was 20. For the same compound, the “Plant response rating, Itchgrass” value [14, 18] was 80, the “Plant response rating, Itchgrass” value [14, 19] was 40 and the “Plant response rating, Itchgrass” value [14, 20] was 0. The “Plant response rating, Itchgrass” value [14, 21] was 0, the “Plant response rating, Itchgrass” value [14, 22] was 0 and the “Plant response rating, Itchgrass” value [14, 23] was 0. For the same compound, the “Plant response rating, Ryegrass, Italian” value [15, 16] was 0, the “Plant response rating, Ryegrass, Italian” value [15, 24] was 0 and the “Plant response rating, Ryegrass, Italian” value [15, 18] was 0. The “Plant response rating, Ryegrass, Italian” value [15, 19] was 0, the “Plant response rating, Ryegrass, Italian” value [15, 20] was 0 and the “Plant response rating, Ryegrass, Italian” value [15, 21] was 0. The “Plant response rating, Ryegrass, Italian” value [15, 23] was 0.
